Data reported in the supplement of paper PMC6723410.

These molecules were tested on GUMC-403 (assay: viability at highest tested concentration (max response) relative to DMSO (% of DMSO control); higher = less cytotoxic). Details: library / dose series: MIPE library, 11-point 1:3 dilution; top concentration 46.1 µM; 48 h.
Procedure, shortened: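 This value is viability at the highest tested concentration relative to vehicle control. GUMC-403 papilloma cells from a patient, grown by conditional reprogramming, were plated at 700/well in 1536-well plates and given 23 nL of compound by pin tool for 48 h. CellTiter-Glo luminescence on a ViewLux was normalised with vehicle wells at 100% and empty wells at 0%.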

Row | Compound | viability
1 | C[C@]12CC[C@H]3[C@@H](C\C=C/4C[C@@H](O)CC[C@]34C)[C@@H]1CCC2=O | 101
2 | CC(C(=O)O)c1ccc2c(c1)CC(=O)c1ccccc1S2 (stereo unspecified) | 103
3 | ClC1=C(N\C2=N\CCN2)C3=NSN=C3C=C1 | 129
4 | Cc1cccc2c1CC[C@H](CN1CCC(c3c(Cl)cccc3Cl)CC1)C[C@@H]2O | 89
5 | CC(C)=CCC/C(C)=C/CC/C(C)=C/CC/C(C)=C/CC/C(C)=C/CC/C(C)=C/CC/C(C)=C/CC/C(C)=C/CC/C(C)=C/CO | 104
6 | Nc1ncnc2c1nc(Cl)n2[C@@H]1O[C@H](CO)[C@@H](O)[C@H]1O | 46
7 | Clc1cccc(-c2nnnn2Cc2cccnc2)c1Cl | 113
8 | O=C(Nc1cccc(C(F)(F)F)c1)Nc1cc([S+](=O)([O-])NC2CC2)ccc1-c1ccsc1 | 124
9 | CO[C@@]12[C@H](COC(N)=O)C/3=C(N1C[C@@H]4N[C@H]24)/C(=O)/C(=C(N)\C3=O)C | 77
10 | COc1cc([C@@H]2c3cc4c(cc3[C@H](O)[C@H]3COC(=O)[C@@H]23)OCO4)cc(OC)c1OC | 99.5
11 | NC(=O)c1cccc(N)c1 | 109
12 | CCCCCCCCCCCC/1=C(O)/C(=O)/C=C(O)\C1=O | 89
13 | CC[C@H]1OC(=O)[C@H](C)[C@@H](O[C@H]2C[C@@](C)(OC)[C@@H](O)[C@H](C)O2)[C@H](C)[C@@H](O[C@@H]2O[C@H](C)C[C@H](N(C)C)[C@H]2O)[C@](C)(OC)C[C@@H](C)C(=O)[C@H](C)[C@@H](O)[C@]1(C)O | 112
14 | CCOC(=O)C/1=C(O)/C(=O)N(CC2=CC=CC=C2)C1 | 136
15 | CC(C)[C@H](CO)Nc1nc(Nc2cccc(Cl)c2)c2ncn(C(C)C)c2n1 | 21.1
16 | O=C(O)C1(Cc2cccc(Nc3nccs3)n2)CCC(Oc2cccc(Cl)c2F)CC1 (stereo unspecified) | 115

Row | Compound | viability
17 | Cc1cccc(-c2n[nH]cc2-c2ccc3ncccc3n2)n1 | 126
18 | OC1=C(O)C2=C(\C=C/C(=O)O2)C=C1 | 110
19 | CC(C)c1nc(CN(C)C(=O)N[C@H](C(=O)N[C@@H](Cc2ccccc2)C[C@H](O)[C@H](Cc2ccccc2)NC(=O)OCc2cncs2)C(C)C)cs1 | 99.7
20 | CC(C)C1CCC(C(=O)N[C@H](Cc2ccccc2)C(=O)O)CC1 (stereo partly specified) | 85.9
21 | CO/N=C(/C(=O)N[C@@H]1C(=O)N2C(C(=O)O)=C(Cn3ccc(=N)n3CCO)CS[C@H]12)c1csc(N)n1 | 109
22 | C1CCN2C[C@H]3C[C@H](\C=C/4CCCN[C@@H]34)[C@H]2C1 | 120
23 | CON(C)C(=O)N1\N=C(/S[C@]1(CCCN)C2=CC=CC=C2)C3=CC(=CC=C3F)F | 116
24 | C#Cc1cccc(Nc2ncnc3cc(OCCOC)c(OCCOC)cc23)c1 | 47.6
25 | CN(C)CCOc1cc(-c2cn[nH]c2)ccc1NC(=O)C1COc2ccccc2O1 (stereo unspecified) | 117
26 | CC(=O)N[C@H]1[C@H](O[C@@H]2c3ccc(c(Cl)c3)Oc3cc4cc(c3O[C@@H]3O[C@H](CO)[C@@H](O)[C@H](O)[C@H]3NC(=O)CCCCCCCC(C)C)Oc3ccc(cc3Cl)C[C@H]3NC(=O)[C@H](N)c5ccc(O)c(c5)Oc5cc(O)cc(c5)[C@H](NC3=O)C(=O)N[C@H]4C(=O)N[C@H]3C(=O)N[C@@H]2C(=O)N[C@@H](C(=O)O)c2cc(O)cc(O[C@H]4O[C@H](CO)[C@@H](O)[C@H](O)[C@@H]4O)c2-c2cc3ccc2O)O[C@H](CO)[C@@H](O)[C@@H]1O | 121
27 | COc1ccc2c(c1)c(CC(=O)O)c(C)n2C(=O)c1ccc(Cl)cc1 | 111
28 | CCOC(=O)[C@H](CCc1ccccc1)N[C@@H](C)C(=O)N1CCC[C@H]1C(=O)O | 125
29 | O=C1c2cccc(O)c2C(=O)c2c(O)cc(CO)cc21 | 92.9
30 | C[C@H]1C[C@H]2[C@@H]3CCC4=CC(=O)C=C[C@]4(C)[C@@]3(F)[C@@H](O)C[C@]2(C)[C@@]1(O)C(=O)CO | 142
31 | C=CC(=O)Nc1cccc(Oc2nc(Nc3ccc(N4CCN(C)CC4)cc3)ncc2Cl)c1 | 26.8
